# Data published in patent publication US11857519B2, “Compounds and methods for the targeted degradation of enhancer of zeste homolog 2 polypeptide” (Arvinas Operations, Inc., priority 2016, dated 2024).
# Molecular target: T1, EZH2 (Homo sapiens, UniProt Q15910)
# T1 construct: Protocol of the Cellular Assay of Target Protein Degradation (VCaP Cells, ELISA); endogenous in cells; host or cells: VCaP cells
# Experiment: Cellular assay of target protein degradation (VCaP cells, ELISA)
# Format: cell-based
# Conditions: 4 hours, protein degradation range at indicated concentration (relative to DMSO control)
# Procedure: Protocol of the Cellular Assay of Target Protein Degradation (VCaP Cells, ELISA).
# For detection Cell Signaling PathScan Sandwich ELISA Catalog #12850 Lot 11 was used. VCaP cells were cultured in ATCC DMEM+ATCC FBS and plated 40,000/well 100 μl/well in RPMI P/S with 5% CSS Omega (bovine) serum into a 96 well plate. The cells were grown for a minimum of 3 days, dosed with compounds in 0.1% DMSO (diluted with 5% CSS) and incubated with aspiration for 4 hours. 100 μl of 1× Cell Signaling lysis buffer #9803 (36 mL dH2O+4 mL Cell Signaling lysis buffer) was added. The incubation was placed on cold room shaker for 10 minutes at speed 8-9. 5 μl to 100 μL of Diluent was transferred to ELISA plate (0.15 μg/mL−0.075 μg/mL) and stored at 4° C. overnight on cold room shaker speed 5 (gentle swirl) and then shaken next morning at 37° C. for 30 minutes. The preparation was washed 4×200 μl with ELISA wash buffer and aspirated with eight-channel aspirator. 100 μl/well of target protein detection antibody was added after, which the preparation was covered and shaken at 37° C. for 1 hour. 100 μl TMB was added, and the mixture was shaken for 5 min while under observation. When TMB turned light blue, 100 μl of Stop solution was added, and the mixture was shaken and read at 450 nm. Also read at 562 nm for background subtraction.
# T1 sequence (Q15910 whole entry): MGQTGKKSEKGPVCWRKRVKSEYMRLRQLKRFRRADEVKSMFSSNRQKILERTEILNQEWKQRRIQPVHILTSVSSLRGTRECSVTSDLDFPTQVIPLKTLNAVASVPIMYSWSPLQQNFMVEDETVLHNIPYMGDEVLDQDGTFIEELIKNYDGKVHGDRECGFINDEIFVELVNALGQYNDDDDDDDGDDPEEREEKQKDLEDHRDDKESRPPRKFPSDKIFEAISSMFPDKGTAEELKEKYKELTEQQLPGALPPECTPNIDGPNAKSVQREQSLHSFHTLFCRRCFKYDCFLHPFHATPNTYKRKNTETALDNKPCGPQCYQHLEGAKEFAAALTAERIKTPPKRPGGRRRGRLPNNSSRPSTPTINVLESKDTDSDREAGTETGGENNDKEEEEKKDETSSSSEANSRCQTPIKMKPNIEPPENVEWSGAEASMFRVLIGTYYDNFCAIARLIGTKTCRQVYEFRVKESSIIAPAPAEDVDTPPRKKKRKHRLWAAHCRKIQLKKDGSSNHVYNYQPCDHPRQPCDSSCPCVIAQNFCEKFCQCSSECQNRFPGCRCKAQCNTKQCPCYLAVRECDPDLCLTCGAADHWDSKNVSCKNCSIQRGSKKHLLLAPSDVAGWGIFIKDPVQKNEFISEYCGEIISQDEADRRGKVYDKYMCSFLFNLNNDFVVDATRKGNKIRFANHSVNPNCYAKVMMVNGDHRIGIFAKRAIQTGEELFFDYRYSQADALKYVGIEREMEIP
# T1 sequence (O75530 whole entry partner): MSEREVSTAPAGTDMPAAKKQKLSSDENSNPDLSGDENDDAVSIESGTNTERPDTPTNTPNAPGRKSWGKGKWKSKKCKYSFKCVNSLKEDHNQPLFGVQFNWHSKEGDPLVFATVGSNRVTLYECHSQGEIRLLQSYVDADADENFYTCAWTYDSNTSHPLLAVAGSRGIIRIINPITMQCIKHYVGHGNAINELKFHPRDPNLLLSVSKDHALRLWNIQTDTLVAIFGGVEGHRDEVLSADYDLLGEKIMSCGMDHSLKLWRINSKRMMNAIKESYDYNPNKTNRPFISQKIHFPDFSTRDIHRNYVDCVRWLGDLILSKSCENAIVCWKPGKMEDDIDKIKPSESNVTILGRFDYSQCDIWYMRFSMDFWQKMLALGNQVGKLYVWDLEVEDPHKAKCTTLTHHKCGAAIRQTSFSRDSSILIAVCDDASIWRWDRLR
# T1 sequence (Q15022 whole entry partner): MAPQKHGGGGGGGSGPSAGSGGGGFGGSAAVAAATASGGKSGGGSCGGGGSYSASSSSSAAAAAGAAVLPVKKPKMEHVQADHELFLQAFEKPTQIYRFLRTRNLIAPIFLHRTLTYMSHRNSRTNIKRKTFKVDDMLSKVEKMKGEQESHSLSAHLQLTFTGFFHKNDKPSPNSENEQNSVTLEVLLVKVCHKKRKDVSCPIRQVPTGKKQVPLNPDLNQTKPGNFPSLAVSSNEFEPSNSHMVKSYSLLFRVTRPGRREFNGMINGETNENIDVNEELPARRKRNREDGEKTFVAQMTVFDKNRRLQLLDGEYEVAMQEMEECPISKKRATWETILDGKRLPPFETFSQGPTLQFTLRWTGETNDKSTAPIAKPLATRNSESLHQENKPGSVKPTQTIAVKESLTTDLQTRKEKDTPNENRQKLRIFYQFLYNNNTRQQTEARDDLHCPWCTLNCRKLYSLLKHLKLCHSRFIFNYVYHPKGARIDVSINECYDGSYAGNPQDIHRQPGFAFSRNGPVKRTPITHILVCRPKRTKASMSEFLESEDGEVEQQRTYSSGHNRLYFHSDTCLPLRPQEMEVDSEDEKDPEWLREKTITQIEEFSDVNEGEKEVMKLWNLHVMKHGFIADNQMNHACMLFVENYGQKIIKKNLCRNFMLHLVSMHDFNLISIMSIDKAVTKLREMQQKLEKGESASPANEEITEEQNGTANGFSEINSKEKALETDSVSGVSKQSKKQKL
row,SMILES,percent target protein degradation class
1,"Cc1cc(C)c(CNC(=O)c2cc(-c3ccc(CN4CCN(CCOCCCOCCCOCC(=O)N[C@H](C(=O)N5C[C@H](O)C[C@H]5C(=O)NCc5ccc(-c6scnc6C)cc5)C(C)(C)C)CC4)cc3)cc3c2ccn3C2CCCC2)c(=O)[nH]1 [Compound 4, 1-cyclopentyl-N-[(4,6-dimethyl-2-oxo-1,2-dihydropyridin-3-yl)methyl]-6-(4-{[4-(2-{3-[3-({[(2S)-1-[(2S,4R)-4-hydroxy-2-({[4(4-methyl-1,3-thiazol-5-yl)phenyl]methyl}carbamoyl)pyrrolidin-1-yl]-3,3-dimethyl-1-oxobutan-2-yl]carbamoyl}methoxy)propoxy]propoxy}ethyl)piperazin-1-yl]methyl}phenyl)-1H-indole-4-carboxamide]",B (B = degradation between 30% and 60%)
2,"Cc1cc(C)c(CNC(=O)c2cc(-c3ccc(CN4CCN(CCOCCCCOCCCCOCC(=O)N[C@H](C(=O)N5C[C@H](O)C[C@H]5C(=O)NCc5ccc(-c6scnc6C)cc5)C(C)(C)C)CC4)cc3)cc3c2ccn3C2CCCC2)c(=O)[nH]1 [Compound 5, 1-cyclopentyl-N-[(4,6-dimethyl-2-oxo-1,2-dihydropyridin-3-yl)methyl]-6-(4-{[4-(2-{4-[4-({[(2S)-1-[(2S,4R)-4-hydroxy-2-({[4-(4-methyl-1,3-thiazol-5-yl)phenyl]methyl}carbamoyl)pyrrolidin-1-yl]-3,3-dimethyl-1-oxobutan-2-yl]carbamoyl}methoxy)butoxy]butoxy}ethyl)piperazin-1-yl]methyl}phenyl)-1H-indole-4-carboxamide]",B (B = degradation between 30% and 60%)
3,"Cc1cc(C)c(CNC(=O)c2cc(-c3ccc(CN4CCN(CCOCCCCCOCCCCCOCC(=O)N[C@H](C(=O)N5C[C@H](O)C[C@H]5C(=O)NCc5ccc(-c6scnc6C)cc5)C(C)(C)C)CC4)cc3)cc3c2ccn3C2CCCC2)c(=O)[nH]1 [Compound 6, 1-cyclopentyl-N-[(4,6-dimethyl-2-oxo-1,2-dihydropyridin-3-yl)methyl]-6-[4-[(4-{2-[(5-{[5-({[(2S)-1-[(2S,4R)-4-hydroxy-2-({[4-(4-methyl-1,3-thiazol-5-yl)phenyl]methyl}carbamoyl)pyrrolidin-1-yl]-3,3-dimethyl-1-oxobutan-2-yl]carbamoyl}methoxy)pentyl]oxy}pentyl)oxy]ethyl}piperazin-1-yl)methyl]phenyl}-1H-indole-4-carboxamide]",B (B = degradation between 30% and 60%)
4,"Cc1cc(C)c(CNC(=O)c2c(C)n(C(C)C3CCN(C(=O)COCCOCCOCCNc4cccc5c4C(=O)N(C4CCC(=O)NC4=O)C5=O)CC3)c3ccccc23)c(=O)[nH]1 (stereo not shown) [Compound 7, N-[(4,6-dimethyl-2-oxo-1,2-dihydropyridin-3-yl)methyl]-1-[1-(1-{1-[2-(2,6-dioxopiperidin-3-yl)-1,3-dioxo-2,3-dihydro-1H-isoindol-4-yl]-4,7,10-trioxa-1-azadodecanoyl}piperidin-4-yl)ethyl]-2-methyl-1H-indole-3-carboxamide]",B (B = degradation between 30% and 60%)
5,"Cc1cc(C)c(CNC(=O)c2c(C)n(C(C)C3CCN(C(=O)COCCOCCOCC(=O)N[C@H](C(=O)N4C[C@H](O)C[C@H]4C(=O)NCc4ccc(-c5scnc5C)cc4)C(C)(C)C)CC3)c3ccccc23)c(=O)[nH]1 (stereo partly drawn) [Compound 9, N-[(4,6-dimethyl-2-oxo-1,2-dihydropyridin-3-yl)methyl]-1-{1-[1-(2-{2-[2-({[(2S)-1-[(2S,4R)-4-hydroxy-2-({[4-(4-methyl-1,3-thiazol-5-yl)phenyl]methyl}carbamoyl)pyrrolidin-1-yl]-3,3-dimethyl-1-oxobutan-2-yl]carbamoyl}methoxy)ethoxy]ethoxy}acetyl)piperidin-4-yl]ethyl}-2-methyl-1H-indole-3-carboxamide]",B (B = degradation between 30% and 60%)
6,"Cc1cc(C)c(CNC(=O)c2c(C)n(C(C)C3CCN(C(=O)COCCOCCOCCOCCNc4cccc5c4C(=O)N(C4CCC(=O)NC4=O)C5=O)CC3)c3ccccc23)c(=O)[nH]1 (stereo not shown) [Compound 10, N-[(4,6-dimethyl-2-oxo-1,2-dihydropyridin-3-yl)methyl]-1-[1-(1-{1-[2-(2,6-dioxopiperidin-3-yl)-1,3-dioxo-2,3-dihydro-1H-isoindol-4-yl]-4,7,10,13-tetraoxa-1-azapentadecanoyl}piperidin-4-yl)ethyl]-2-methyl-1H-indole-3-carboxamide]",B (B = degradation between 30% and 60%)
7,"Cc1cc(C)c(CNC(=O)c2c(C)n(C(C)C3CCN(C(=O)COCCOCCOCCOCCOCC(=O)N[C@H](C(=O)N4C[C@H](O)C[C@H]4C(=O)NCc4ccc(-c5scnc5C)cc4)C(C)(C)C)CC3)c3ccccc23)c(=O)[nH]1 (stereo partly drawn) [Compound 11, N-[(4,6-dimethyl-2-oxo-1,2-dihydropyridin-3-yl)methyl]-1-{1-[1-(1-{[(2S)-1-[(2S,4R)-4-hydroxy-2-({[4-(4-methyl-1,3-thiazol-5-yl)phenyl]methyl}carbamoyl)pyrrolidin-1-yl]-3,3-dimethyl-1-oxobutan-2-yl]carbamoyl}-2,5,8,11,14-pentaoxahexadecanoyl)piperidin-4-yl]ethyl}-2-methyl-1H-indole-3-carboxamide]",B (B = degradation between 30% and 60%)
8,"Cc1cc(C)c(CNC(=O)c2c(C)n(C(C)C3CCN(C(=O)COCCOCCOCCOCCOCCNc4cccc5c4C(=O)N(C4CCC(=O)NC4=O)C5=O)CC3)c3ccccc23)c(=O)[nH]1 (stereo not shown) [Compound 12, N-[(4,6-dimethyl-2-oxo-1,2-dihydropyridin-3-yl)methyl]-1-[1-(1-{1-[2-(2,6-dioxopiperidin-3-yl)-1,3-dioxo-2,3-dihydro-1H-isoindol-4-yl]-4,7,10,13,16-pentaoxa-1-azaoctadecanoyl}piperidin-4-yl)ethyl]-2-methyl-1H-indole-3-carboxamide]",B (B = degradation between 30% and 60%)
9,"CCN(c1cc(-c2ccc(OCCOCCOCCOCC(=O)N[C@H](C(=O)N3C[C@H](O)C[C@H]3C(=O)NCc3ccc(-c4scnc4C)cc3)C(C)(C)C)cc2)cc(C(=O)NCc2c(C)cc(C)[nH]c2=O)c1C)C1CCOCC1 [Compound 13, (2S,4R)-1-[(2S)-2-{1-[4-(3-{[(4,6-dimethyl-2-oxo-1,2-dihydropyridin-3-yl)methyl]carbamoyl}-5-[ethyl(oxan-4-yl)amino]-4-methylphenyl)phenyl]-1,4,7,10-tetraoxadodecan-12-amido}-3,3-dimethylbutanoyl]-4-hydroxy-N-{[4-(4-methyl-1,3-thiazol-5-yl)phenyl]methyl}pyrrolidine-2-carboxamide]",B (B = degradation between 30% and 60%)
10,"CCN(c1cc(-c2ccc(OCCOCCOCCOCCOCCOCC(=O)N[C@H](C(=O)N3C[C@H](O)C[C@H]3C(=O)NCc3ccc(-c4scnc4C)cc3)C(C)(C)C)cc2)cc(C(=O)NCc2c(C)cc(C)[nH]c2=O)c1C)C1CCOCC1 [Compound 15, (2S,4R)-1-[(2S)-2-{1-[4-(3-{[(4,6-dimethyl-2-oxo-1,2-dihydropyridin-3-yl)methyl]carbamoyl}-5-[ethyl(oxan-4-yl)amino]-4-methylphenyl)phenyl]-1,4,7,10,13,16-hexaoxaoctadecan-18-amido}-3,3-dimethylbutanoyl]-4-hydroxy-N-{[4-(4-methyl-1,3-thiazol-5-yl)phenyl]methyl}pyrrolidine-2-carboxamide]",B (B = degradation between 30% and 60%)
11,"CCN(c1cc(-c2ccc(OCCOCCOCCOCCOCCOCCOCC(=O)N[C@H](C(=O)N3C[C@H](O)C[C@H]3C(=O)NCc3ccc(-c4scnc4C)cc3)C(C)(C)C)cc2)cc(C(=O)NCc2c(C)cc(C)[nH]c2=O)c1C)C1CCOCC1 [Compound 16, (2S,4R)-1-[(2S)-2-{1-[4-(3-{[(4,6-dimethyl-2-oxo-1,2-dihydropyridin-3-yl)methyl]carbamoyl}-5-[ethyl(oxan-4-yl)amino]-4-methylphenyl)phenyl]-1,4,7,10,13,16,19-heptaoxahenicosan-21-amido}-3,3-dimethylbutanoyl]-4-hydroxy-N-{[4-(4-methyl-1,3-thiazol-5-yl)phenyl]methyl}pyrrolidine-2-carboxamide]",B (B = degradation between 30% and 60%)
12,"CCN(c1cc(-c2ccc(OCCOCCOCCOCCNc3cccc4c3C(=O)N(C3CCC(=O)NC3=O)C4=O)cc2)cc(C(=O)NCc2c(C)cc(C)[nH]c2=O)c1C)C1CCOCC1 (stereo not shown) [Compound 17, N-[(4,6-dimethyl-2-oxo-1,2-dihydropyridin-3-yl)methyl]-5-[4-({1-[2-(2,6-dioxopiperidin-3-yl)-1,3-dioxo-2,3-dihydro-1H-isoindol-4-yl]-4,7,10-trioxa-1-azadodecan-12-yl}oxy)phenyl]-3-[ethyl(oxan-4-yl)amino]-2-methylbenzamide]",B (B = degradation between 30% and 60%)
13,"CCN(c1cc(-c2ccc(OCCOCCOCCOCCOCCNc3cccc4c3C(=O)N(C3CCC(=O)NC3=O)C4=O)cc2)cc(C(=O)NCc2c(C)cc(C)[nH]c2=O)c1C)C1CCOCC1 (stereo not shown) [Compound 18, N-[(4,6-dimethyl-2-oxo-1,2-dihydropyridin-3-yl)methyl]-5-[4-({1-[2-(2,6-dioxopiperidin-3-yl)-1,3-dioxo-2,3-dihydro-1H-isoindol-4-yl]-4,7,10,13-tetraoxa-1-azapentadecan-15-yl}oxy)phenyl]-3-[ethyl(oxan-4-yl)amino]-2-methylbenzamide]",B (B = degradation between 30% and 60%)
